Patent US20110178118A1, “PALONOSETRON FOR THE TREATMENT OF CHEMOTHERAPY INDUCED EMESES” (priority 2002, published 2011)
Read-outs that look alike come from different tables or passages of the source. Marks after values point to notes of the source that are not given here.

What was measured:
cisplatin-induced emesis [1] = experiment: Intravenous palonosetron vs ondansetron in cisplatin-treated dogs; assay type: in vivo; settings: 0.1 mg/kg intravenous; five-hour period following cisplatin 3.0 mg/kg
Description: (§1) The antiemetic effects of intravenously and orally administered palonosetron were assessed in male and female dogs (sexes combined). Antineoplastic agents employed in these experiments included cisplatin (3 mg/kg)), dacarbazine (30 mg/kg), mechlorethamine (0.4 mg/kg) and actinomycin D (0.15 mg/kg). […] Mean numbers of episodes were computed and the statistical significance of differences between treatment groups were determined with Dunnett's t test. Solutions of palonosetron and comparator drugs (ondansetron and granisetron) were prepared in distilled water. Vehicle control groups received distilled water. The therapeutic effects of intravenously and orally administered palonosetron were compared to those of ondansetron and vehicle in cisplatin-treated dogs.

cisplatin-induced emesis [2] = experiment: Reversal of cisplatin-induced emesis, intravenous antiemetic one hour after cisplatin; assay type: in vivo, dogs; settings: for Emetic Episodes (mean ± SD): observed five hours
Description: as §1, with “In a different study, palonosetron and ondansetron were assessed for their relative abilities to reverse cisplatin-induced emesis. In these experiments dogs received intravenous injections” for “The therapeutic effects”, “palonosetron, ondansetron, or vehicle one hour after the intravenous administration” for “intravenously and orally administered palonosetron were compared to those”, “3.0 mg/kg cisplatin. Each animal was observed continuously for five hours following cisplatin administration for the number of emetic episodes.” for “ondansetron and vehicle in cisplatin-treated dogs.”

cisplatin-induced emesis [3] = experiment: Anti-emetic effect, oral antiemetic one hour before cisplatin; assay type: in vivo, dogs; settings: for Emetic Episodes (mean ± SD): observed five hours
Description: The antiemetic effects of intravenously and orally administered palonosetron were assessed in male and female dogs (sexes combined). Antineoplastic agents employed in these experiments included cisplatin (3 mg/kg)), dacarbazine (30 mg/kg), mechlorethamine (0.4 mg/kg) and actinomycin D (0.15 mg/kg). […] Mean numbers of episodes were computed and the statistical significance of differences between treatment groups were determined with Dunnett's t test. Solutions of palonosetron and comparator drugs (ondansetron and granisetron) were prepared in distilled water. Vehicle control groups received distilled water. The observation of potency differential was further seen during an experiment in which oral dose-response relationships of palonosetron and ondansetron were compared in cisplatin-treated dogs. Palonosetron, ondansetron or vehicle control were administered by the oral route one hour prior to the administration of cisplatin. Each animal was observed continuously for five hours following cisplatin administration for the number of emetic episodes.

cisplatin-induced emesis [4] = experiment: Duration of action in cisplatin-treated dogs; assay type: in vivo
Description: Mean numbers of episodes were computed and the statistical significance of differences between treatment groups were determined with Dunnett's t test. Solutions of palonosetron and comparator drugs (ondansetron and granisetron) were prepared in distilled water. Vehicle control groups received distilled water.

[5] = Systemic exposure of palonosetron (plasma, HPLC-radioimmunoassay); assay type: in vivo, dogs; settings: 100 to 1000 μg/kg
cisplatin-induced emesis [6] = experiment: Systemic exposure study: effects on cisplatin-induced emesis; assay type: in vivo, dogs; settings: 30 minutes prior to cisplatin, oral, table title says intravenous
Description: An experiment was conducted to study the relationship between plasma concentration of palonosetron and protection of dogs against cisplatin-induced emesis. Groups of dogs received oral doses of palonosetron (0, 100, 316, or 1000 μg/kg) or vehicle control 30 minutes prior to the injection of cisplatin.

[7] = tested on: Dacarbazine-Induced Emesis; experiment: Antagonism of dacarbazine-induced emesis; assay type: in vivo, dogs; settings: for Emetic Episodes (mean ± SD): 2 hours prior to dacarbazine 30.0 mg/kg IV, observed 5 hours
[8] = tested on: Actinomycin D-Induced Emesis; experiment: Antagonism of actinomycin D-induced emesis; assay type: in vivo, dogs; settings: for Emetic Episodes (mean ± SD): 2 hours prior to actinomycin D 0.15 mg/kg IV, observed 5 hours
[9] = tested on: Mechlorethamine-Induced Emesis; assay type: in vivo, dogs; settings: for Emetic Episodes (mean ± SD): 2 hours prior to mechlorethamine 0.4 mg/kg IV, observed 5 hours
[10] = in vivo
Description: A randomized, double-blind, multicenter, dose-ranging Phase II trial was performed to identify the dose response relationship among single I.V. doses of palonosetron. Patients receiving highly emetogenic chemotherapy including cyclophosphamide (>1100 mg/m2) and cisplatin (>70 mg/m2), commonly associated with delayed emesis, were assigned to one of five dose groups of a single I.V. administration of palonosetron. Palonosetron was administered alone (without dexamethasone) as a 30 second intravenous injection, 30 minutes prior to chemotherapy administration. The primary endpoint was 24-hour complete responses (no emesis, no rescue) (CR). Secondary endpoints included complete control (no emesis, no rescue, mild nausea) (CC) and 5-day CR.
161 patients (32 women, 129 men) participated.

[11] = intravenous antiemetic 0.001 mg/kg
[12] = intravenous antiemetic 0.003 mg/kg
[13] = intravenous antiemetic 0.01 mg/kg
[14] = intravenous antiemetic 0.03 mg/kg
[15] = intravenous or oral route, stated for all three antineoplastic agents

SMILES: Cl.O=C1c2cccc3c2[C@H](CCC3)CN1[C@@H]1CN2CCC1CC2 [Palonosetron, (3aS)-2,3,3a,4,5,6-Hexahydro-2-[(S)-1-Azabicyclo[2.2.2]oct-3-yl]2,3,3a,4,5,6-hexahydro-1-oxo-1Hbenz[de]isoquinoline hydrochloride]
- mean number of emetic episodes (cisplatin-induced emesis [1]): 2.20
- Emetic Episodes (mean ± SD) (cisplatin-induced emesis [2]; intravenous dose 0.3 μg/kg one hour after cisplatin 3.0 mg/kg IV): 13.16 ± 6.11 ^
- Emetic Episodes (mean ± SD) (cisplatin-induced emesis [2]; intravenous dose 1.0 μg/kg one hour after cisplatin 3.0 mg/kg IV): 7.16 ± 4.26^a
- Emetic Episodes (mean ± SD) (cisplatin-induced emesis [2]; intravenous dose 3.0 μg/kg one hour after cisplatin 3.0 mg/kg IV): 4.33 ± 4.03^b
- Emetic Episodes (mean ± SD) (cisplatin-induced emesis [2]; intravenous dose 10.0 μg/kg one hour after cisplatin 3.0 mg/kg IV): 4.50 ± 5.24^b
- Emetic Episodes (mean ± SD) (cisplatin-induced emesis [2]; intravenous dose 30.0 μg/kg one hour after cisplatin 3.0 mg/kg IV): 1.33 ± 1.21^b
- Emetic Episodes (mean ± SD) (cisplatin-induced emesis [2]; intravenous dose 100.0 μg/kg one hour after cisplatin 3.0 mg/kg IV): 1.67 ± 1.83^b
- Emetic Episodes (mean ± SD) (cisplatin-induced emesis [2]; intravenous dose 300.0 μg/kg one hour after cisplatin 3.0 mg/kg IV): 3.33 ± 3.01^b
- statistically minimally effective dose level (cisplatin-induced emesis [2]; intravenous, one hour after cisplatin): 1.0 µg/kg
- Emetic Episodes (mean ± SD) (cisplatin-induced emesis [3]; oral dose 0.3 μg/kg one hour before cisplatin): 12.16 ± 1.94
- Emetic Episodes (mean ± SD) (cisplatin-induced emesis [3]; oral dose 1.0 μg/kg one hour before cisplatin): 12.83 ± 4.70
- Emetic Episodes (mean ± SD) (cisplatin-induced emesis [3]; oral dose 3.0 μg/kg one hour before cisplatin): 16.16 ± 5.11
- Emetic Episodes (mean ± SD) (cisplatin-induced emesis [3]; oral dose 10.0 μg/kg one hour before cisplatin): 4.00 ± 3.79^a
- Emetic Episodes (mean ± SD) (cisplatin-induced emesis [3]; oral dose 30.0 μg/kg one hour before cisplatin): 2.66 ± 1.75^a
- Emetic Episodes (mean ± SD) (cisplatin-induced emesis [3]; oral dose 100.0 μg/kg one hour before cisplatin): 0.00 ± 0.00^a
- Emetic Episodes (mean ± SD) (cisplatin-induced emesis [3]; oral dose 300.0 μg/kg one hour before cisplatin): 1.67 ± 2.04^a
- minimally effective dose (significant reduction in episodes) (cisplatin-induced emesis [3]; oral, one hour before cisplatin): 10 µg/kg
- longest pretreatment time before cisplatin with antiemetic activity (cisplatin-induced emesis [4]; 0.1 mg/kg IV): 10 h
- Emetic Episodes (mean ± SD) (cisplatin-induced emesis [4]; 0.1 mg/kg IV, 1 hr pre-cisplatin 3.0 mg/kg IV): 1.33 ± 1.03^b
- Emetic Episodes (mean ± SD) (cisplatin-induced emesis [4]; 0.1 mg/kg IV, 2 hr pre-cisplatin 3.0 mg/kg IV): 2.50 ± 2.43^b
- Emetic Episodes (mean ± SD) (cisplatin-induced emesis [4]; 0.1 mg/kg IV, 4 hr pre-cisplatin 3.0 mg/kg IV): 0.33 ± 0.52^b
- Emetic Episodes (mean ± SD) (cisplatin-induced emesis [4]; 0.1 mg/kg IV, 6 hr pre-cisplatin 3.0 mg/kg IV): 5.83 ± 4.40^b
- Emetic Episodes (mean ± SD) (cisplatin-induced emesis [4]; 0.1 mg/kg IV, 8 hr pre-cisplatin 3.0 mg/kg IV): 9.50 ± 5.50^b
- Emetic Episodes (mean ± SD) (cisplatin-induced emesis [4]; 0.1 mg/kg IV, 10 hr pre-cisplatin 3.0 mg/kg IV): 9.83 ± 4.79^b
- Emetic Episodes (mean ± SD) (cisplatin-induced emesis [4]; 0.1 mg/kg IV, 12 hr pre-cisplatin 3.0 mg/kg IV): 13.17 ± 6.27
- protective effects, pretreatment time prior to cisplatin (cisplatin-induced emesis [4]; earlier experiment, 0.03 mg/kg, compared with ondansetron 0.3 mg/kg IV (as long as seven hours)): similarly effective
- dose proportionality of systemic exposure (AUC0-4hr) [5]: approximately dose-proportional
- Emetic Episodes (mean ± SD) (cisplatin-induced emesis [6]; palonosetron 100 μg/kg): 1.83 ± 1.60^b
- Emetic Episodes (mean ± SD) (cisplatin-induced emesis [6]; palonosetron 316 μg/kg): 4.50 ± 6.83^b
- Emetic Episodes (mean ± SD) (cisplatin-induced emesis [6]; palonosetron 1000 μg/kg): 5.67 ± 5.32^b
- Emetic Episodes (mean ± SD) [7, 11]: 10.17 ± 2.04 ^
- Emetic Episodes (mean ± SD) [7, 12]: 6.67 ± 4.13^
- Emetic Episodes (mean ± SD) [7, 13]: 1.67 ± 1.37^d
- Emetic Episodes (mean ± SD) [7, 14]: 0.83 ± 1.17^d
- potency relative to ondansetron [7, 15]: at least 10 times
- Emetic Episodes (mean ± SD) ([7]; oral antiemetic 0.003 mg/kg): 12.83 ± 6.68 ^
- Emetic Episodes (mean ± SD) ([7]; oral antiemetic 0.01 mg/kg): 6.83 ± 4.92^d
- Emetic Episodes (mean ± SD) ([7]; oral antiemetic 0.03 mg/kg): 0.33 ± 0.52^d
- Emetic Episodes (mean ± SD) ([7]; oral antiemetic 0.1 mg/kg): 0.00 ± 0.00^d
- Emetic Episodes (mean ± SD) [8, 11]: 10.00 ± 0.54^c
- Emetic Episodes (mean ± SD) [8, 12]: 10.83 ± 2.04 ^
- Emetic Episodes (mean ± SD) [8, 13]: 7.17 ± 3.06^d
- Emetic Episodes (mean ± SD) [8, 14]: 5.17 ± 4.45^d
- potency relative to ondansetron [8, 15]: at least 10 times
- Emetic Episodes (mean ± SD) ([8]; oral antiemetic 0.003 mg/kg): 5.83 ± 1.47^d
- Emetic Episodes (mean ± SD) ([8]; oral antiemetic 0.01 mg/kg): 6.67 ± 3.83^d
- Emetic Episodes (mean ± SD) ([8]; oral antiemetic 0.03 mg/kg): 3.33 ± 4.55^d
- Emetic Episodes (mean ± SD) ([8]; oral antiemetic 0.1 mg/kg): 1.00 ± 1.67^d
- Emetic Episodes (mean ± SD) [9, 11]: 7.67 ± 5.05
- Emetic Episodes (mean ± SD) [9, 12]: 6.00 ± 4.29
- Emetic Episodes (mean ± SD) [9, 13]: 3.00 ± 3.52^d
- Emetic Episodes (mean ± SD) [9, 14]: 0.17 ± 0.41^d
- potency relative to ondansetron [9, 15]: at least 10 times
- Emetic Episodes (mean ± SD) ([9]; oral antiemetic 0.003 mg/kg): 4.50 ± 3.51^c
- Emetic Episodes (mean ± SD) ([9]; oral antiemetic 0.01 mg/kg): 2.83 ± 1.94^d
- Emetic Episodes (mean ± SD) ([9]; oral antiemetic 0.03 mg/kg): 0.33 ± 0.82^d
- Emetic Episodes (mean ± SD) ([9]; oral antiemetic 0.1 mg/kg): 0.00 ± 0.00^d
- adverse events either mild or moderate ([10]; both, human): 83.9%
- adverse events not attributed to study medication ([10]; both, human): 86.0%
- adverse events related to study medication: abdominal pain ([10]; both, human): 2.5%
- adverse events related to study medication: constipation ([10]; both, human): 8.7%
- adverse events related to study medication: dizziness ([10]; both, human): 2.5%
- adverse events related to study medication: headache ([10]; both, human): 19.3%
- serious drug-related events [10]: No serious drug-related events were reported
